{"source": "patent US8921405B2", "about": "“Compounds” (Orexo AB, priority 2009, dated 2014)", "data": [{"target": "T1, recombinant human mPGES-1 (Homo sapiens, UniProt O14684)", "T1 construct": "made in house; host or cells: Rosetta E. coli (membrane/microsome fraction)", "T1 sequence (O14684 1-152)": "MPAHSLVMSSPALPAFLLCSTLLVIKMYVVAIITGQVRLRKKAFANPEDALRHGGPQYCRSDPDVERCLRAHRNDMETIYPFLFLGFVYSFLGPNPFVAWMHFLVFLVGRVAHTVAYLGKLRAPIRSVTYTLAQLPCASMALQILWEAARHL", "assay": "mPGES-1 HTRF assay (inhibition of PGE2 formation from PGH2)", "assay_type": "biochemical", "conditions": "HTRF assay", "in_short": "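Microsomes of E. coli expressing human mPGES-1, in 0.1 M KPi pH 7.4 with 2.5 mM GSH, preincubated 25 min at room temperature with inhibitor, then given PGH2 for 1 min before FeCl2 acidic stop. PGE2 quantified by HTRF (665/620 nm ratio) against synthetic PGE2 standard curve; percent inhibition versus controls.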", "units": {"IC50": "nM"}, "values": [{"smiles": "Cn1c(Nc2cc(CNC(=O)C3(C(F)(F)F)CC3)ccc2Cl)nc2cc(C(=O)NC3CCC(F)(F)CC3)c(OCC(F)F)cc21", "note": "[Example 62, N-(4,4-Difluorocyclohexyl)-2-(2-chloro-5-{[(1-trifluoromethyl-cyclopropanecarbonyl)-amino]-methyl}-phenylamino)-6-(2,2-difluoro-ethoxy)-1-methyl-1H-benzimidazole-5-carboxylic acid amide]", "IC50": 1}, {"smiles": "COc1cc2c(cc1C(=O)Nc1ccc(Br)cc1)nc(Nc1cc(CNC(=O)C3(C(F)(F)F)CC3)ccc1Cl)n2C", "note": "[Example 63, N-(4-Bromo-phenyl)-2-(2-chloro-5-{[(1-trifluoromethyl-cyclopropanecarbonyl)-amino]-methyl}-phenylamino)-6-methoxy-1-methyl-1H-benzimidazole-5-carboxylic acid amide]", "IC50": 2}, {"smiles": "COc1cc2c(cc1C(=O)NCC1CC1)nc(Nc1cc(CNC(=O)C3(C(F)(F)F)CC3)ccc1Cl)n2C", "note": "[Example 64, N-(Cyclopropylmethyl)-2-(2-chloro-5-{[(1-trifluoromethyl-cyclopropanecarbonyl)-amino]-methyl}-phenylamino)-6-methoxy-1-methyl-1H-benzimidazole-5-carboxylic acid amide]", "IC50": 2}, {"smiles": "COc1cc2c(cc1C(N)=O)nc(Nc1cc(CNC(=O)C3(C(F)(F)F)CC3)ccc1Cl)n2C", "note": "[Example 65, 2-(2-chloro-5-{[(1-trifluoromethyl-cyclopropanecarbonyl)-amino]-methyl}-phenylamino)-6-methoxy-1-methyl-1H-benzimidazole-5-carboxylic acid amide]", "IC50": 300}, {"smiles": "Cn1c(Nc2cc(CNC(=O)C3(C(F)(F)F)CC3)ccc2F)nc2cc(C(=O)Nc3ccc(Br)cc3)c(OCC(F)F)cc21", "note": "[Example 66, N-(4-Bromo-phenyl)-2-(2-fluoro-5-{[(1-trifluoromethyl-cyclopropanecarbonyl)-amino]-methyl}-phenylamino)-6-(2,2-difluoro-ethoxy)-1-methyl-1H-benzimidazole-5-carboxylic acid amide]", "IC50": 3}, {"smiles": "O=C(Nc1ccc(Br)cc1)c1cc2nc(Nc3cc(CNC(=O)C4(C(F)(F)F)CC4)ccc3Cl)[nH]c2cc1OCC(F)F", "note": "[Example 67, N-(4-Bromo-phenyl)-2-(2-chloro-5-{[(1-trifluoromethyl-cyclopropanecarbonyl)-amino]-methyl}-phenylamino)-6-(2,2-difluoro-ethoxy)-1H-benzimidazole-5-carboxylic acid amide]", "IC50": 2}, {"smiles": "O=C(NCC1CC1)c1cc2nc(Nc3cc(CNC(=O)C4(C(F)(F)F)CC4)ccc3Cl)[nH]c2cc1OCC(F)F", "note": "[Example 68, N-(Cyclopropylmethyl)-2-(2-chloro-5-[{(l-trifluoromethyl-cyclopropanecarbonyl)-amino]-methyl}-phenylamino)-6-(2,2-difluoro-ethoxy)-1H-benzimidazole-5-carboxylic acid amide]", "IC50": 3}, {"smiles": "COc1cc2[nH]c(Nc3cc(CNC(=O)C4(C(F)(F)F)CC4)ccc3Cl)nc2cc1C(=O)Nc1ccc(Br)cc1", "note": "[Example 69, N-(4-Bromo-phenyl)-2-(2-chloro-5-{[(1-trifluoromethyl-cyclopropanecarbonyl)-amino]-methyl}-phenylamino)-6-methoxy-1H-benzimidazole-5-carboxylic acid amide]", "IC50": 1}, {"smiles": "CN(C)CCn1c(Nc2cc(CNC(=O)C3(C(F)(F)F)CC3)ccc2Cl)nc2cc(C(=O)Nc3ccc(Br)cc3)ccc21", "note": "[Example 70, N-(4-Bromo-phenyl)-2-(2-chloro-5-{[(1-trifluoromethyl-cyclopropanecarbonyl)-amino]-methyl}-phenylamino)-1-(2-(dimethylamino)ethyl)-1H-benzimidazole-5-carboxylic acid amide]", "IC50": 3}, {"smiles": "COCCn1c(Nc2cc(CNC(=O)C3(C(F)(F)F)CC3)ccc2Cl)nc2cc(C(=O)Nc3ccc(Br)cc3)ccc21", "note": "[Example 71, N-(4-Bromo-phenyl)-2-(2-chloro-5-{[(1-trifluoromethyl-cyclopropanecarbonyl)-amino]-methyl}-phenylamino)-1-(2-methoxyethyl)-1H-benzimidazole-5-carboxylic acid amide]", "IC50": 2}, {"smiles": "Cn1c(Nc2cc(CNC(=O)C(C)(F)F)ccc2Cl)nc2cc(C(=O)Nc3ccc(Br)cc3)c(OCC(F)F)cc21", "note": "[Example 72, N-(4-Bromo-phenyl)-2-(2-chloro-5-{[(1,1-difluoro-ethylcarbonyl)-amino]-methyl}-phenylamino)-6-(2,2-difluoro-ethoxy)-1-methyl-1H-benzimidazole-5-carboxylic acid amide]", "IC50": 3}, {"smiles": "CC(C(=O)NCc1ccc(Cl)c(Nc2nc3cc(C(=O)Nc4ccc(Br)cc4)c(OCC(F)F)cc3n2C)c1)C(F)(F)F", "note": "(stereo not drawn) [Example 73, N-(4-Bromo-phenyl)-2-(2-chloro-5-{[(1-trifluoromethyl-ethyl-carbonyl)-amino]-methyl}-phenylamino)-6-(2,2-difluoro-ethoxy)-1-methyl-1H-benzimidazole-5-carboxylic acid amide]", "IC50": 3}, {"smiles": "Cn1c(Nc2cc(CNC(=O)c3c(F)cccc3Cl)ccc2Cl)nc2cc(C(=O)Nc3ccc(Br)cc3)c(OCC(F)F)cc21", "note": "[Example 74, N-(4-Bromo-phenyl)-2-(2-chloro-5-{[(2-chloro-6-fluorophenylcarbonyl)-amino]-methyl}-phenylamino)-6-(2,2-difluoro-ethoxy)-1-methyl-1H-benzimidazole-5-carboxylic acid amide]", "IC50": 4}, {"smiles": "Cn1c(Nc2cc(CNC(=O)C(C)(N)C(F)(F)F)ccc2Cl)nc2cc(C(=O)Nc3ccc(Br)cc3)c(OCC(F)F)cc21", "note": "(stereo not drawn) [Example 75, N-(4-Bromo-phenyl)-2-(2-chloro-5-{[(1-amino-1-trifluoromethyl-ethyl-carbonyl)-amino]-methyl}-phenylamino)-6-(2,2-difluoro-ethoxy)-1-methyl-1H-benzimidazole-5-carboxylic acid amide]", "IC50": 3}, {"smiles": "Cn1c(Nc2cc(CNC(=O)C3(O)CC3)ccc2Cl)nc2cc(C(=O)Nc3ccc(Br)cc3)c(OCC(F)F)cc21", "note": "[Example 76, N-(4-Bromo-phenyl)-2-(2-chloro-5-{[(1-hydroxycyclopropanecarbonyl)-amino]-methyl}-phenylamino)-6-(2,2-difluoro-ethoxy)-1-methyl-1H-benzimidazole-5-carboxylic acid amide]", "IC50": 3}, {"smiles": "Cn1c(Nc2cc(CNC(=O)C(C)(C)C(F)(F)F)ccc2Cl)nc2cc(C(=O)Nc3ccc(Br)cc3)c(OCC(F)F)cc21", "note": "[Example 77, N-(4-Bromo-phenyl)-2-(2-chloro-5-{[(1-methyl-1-trifluoromethyl-ethylcarbonyl)-amino]-methyl}-phenylamino)-6-(2,2-difluoro-ethoxy)-1-methyl-1H-benzimidazole-5-carboxylic acid amide]", "IC50": 4}, {"smiles": "CC(=O)NCc1ccc(Cl)c(Nc2nc3cc(C(=O)Nc4ccc(Br)cc4)c(OCC(F)F)cc3n2C)c1", "note": "[Example 79, N-(4-Bromo-phenyl)-2-(2-chloro-5-{[(methylcarbonyl)-amino]-methyl}-phenylamino)-6-(2,2-difluoro-ethoxy)-1-methyl-1H-benzimidazole-5-carboxylic acid amide]", "IC50": 4}, {"smiles": "Cn1c(Nc2cc(CNC(=O)C3CC3)ccc2Cl)nc2cc(C(=O)Nc3ccc(Br)cc3)c(OCC(F)F)cc21", "note": "[Example 80, N-(4-Bromo-phenyl)-2-(2-chloro-5-{[(cyclopropylcarbonyl)-amino]-methyl}-phenylamino)-6-(2,2-difluoro-ethoxy)-1-methyl-1H-benzimidazole-5-carboxylic acid amide]", "IC50": 9}]}]}
